Where two headings read alike, the source gives them in different places.
Columns and labels:
[1] = cited from earlier work
[2] = no reference given, cited from earlier work
[3] = Equilibrium between di-, tri- and tetrasulfides in the presence of elemental sulfur (1H NMR); assay type: physicochemical; conditions: D2O with elemental sulfur and butylamine, after 4 days
Method: To test this hypothesis, a reaction was completed in D2O with elemental sulfur, NAC disulfide, and butylamine.
To understand why the degradation leveled off, NAC trisulfide was dissolved in water, elemental sulfur was added, and the contents were heated to 40 °C.
N-Acetylcysteine disulfide (9.3 mg, 23 μmol) was dissolved in 600 μL of D2O. Elemental sulfur (6.8 mg, 0.21 mmol) and butylamine (18.5 mg, 0.25 mmol) were added, and the ^1H NMR spectra were periodically obtained to track the equilibrium.

[4] = Stability in D2O in the presence of butylamine or triethylamine, tracked by 1H NMR; assay type: physicochemical; conditions: for tetrasulfide present: butylamine and triethylamine; for degraded: after 1 day
Method: N-Acetylcysteine trisulfide (26.5 mg, 66 μmol) was dissolved in 600 μL of D2O. Butylamine (5.0 mg, 68 μmol) was added, and the ^1H NMR spectra were taken periodically to track degradation.
N-Acetylcysteine trisulfide (26.5 mg, 66 μmol) was dissolved in 600 μL of D2O. Triethylamine (8.0 mg, 79 μmol) was added, and the ^1H NMR spectra were taken periodically to track degradation.
Cysteine trisulfide (5.5 mg, 20 μmol) was added to 600 μL of D2O. The solution was filtered to remove undissolved particles. […] The ^1H NMR spectra were taken periodically to track degradation.
Cysteine trisulfide (4.3 mg, 16 μmol) was added to 600 μL of D2O. The solution was filtered to remove undissolved particles. […] The ^1H NMR spectra were taken periodically to track degradation.
N-Acetylcysteine tetrasulfide (17.2 mg, 44 μmol) was dissolved in 600 μL of D2O. Butylamine (9.9 mg, 135 μmol) was added, and the ^1H NMR spectra were taken periodically to track degradation.
N-Acetylcysteine tetrasulfide (17.2 mg, 44 μmol) was dissolved in 600 μL of D2O. Triethylamine (13.5 mg, 135 μmol) was added, and the ^1H NMR spectra were taken periodically to track degradation.

[5] = Stability in nonbuffered D2O at room and elevated temperature (1H NMR); assay type: physicochemical; conditions: nonbuffered D2O
Method: N-Acetylcysteine trisulfide (24.3 mg, 61 μmol) was dissolved in 500 μL of D2O and placed in a 40 °C oil bath. The ^1H NMR spectra were taken periodically to track degradation.
N-Acetylcysteine trisulfide (24.3 mg, 61 μmol) was dissolved in 500 μL of D2O and placed in a 60 °C oil bath. The ^1H NMR spectra were taken periodically to track degradation.
N-Acetylcysteine tetrasulfide (8.0 mg, 21 μmol) was dissolved in 600 μL of D2O. The ^1H NMR spectra were taken periodically to track degradation.
N-Acetylcysteine tetrasulfide (10.0 mg, 26 μmol) was dissolved in 600 μL of D2O and placed in a 40 °C oil bath. The ^1H NMR spectra were taken periodically to track degradation.

[6] = Stability in water/D2O buffered at different pH values, tracked by 1H NMR; assay type: physicochemical; conditions: for half-life: buffered water/D2O, read-out: estimated half-life (converted); for degradation: pH 5.8, 9 days
Excerpt: The ^1H NMR spectra of NAC and the disulfide, trisulfide, and tetrasulfide of NAC had peaks at unique values for chemical shifts and allowed for their easy characterization (Figure 3). Pure chemicals of each sulfide were synthesized and characterized by ^1H and ^13C NMR spectroscopy as well as by high-resolution mass spectroscopy. The unique chemical shifts of the peaks for the Ha and Hb/Hc protons on the sulfides allowed the integration of each sulfide to be determined.
The stability of NAC trisulfide in water buffered at pH values of 5.8, 7.4, and 9.0 was measured.
The stability of cysteine trisulfide was investigated in buffered water at pH values of 5.8, 7.0, and 9.0. […] At pH values of 5.8, 7.0, and 9.0, the cysteine trisulfide was soluble and its ^1H NMR spectra were obtained.
The stability of glutathione trisulfide was investigated at pH values of 5.8, 7.4, and 9.0 (Figure S14a). The degradation of glutathione trisulfide was more rapid at pH values of 5.8 and 7.4 than that of the trisulfides of NAC and cysteine. At an acidic pH of 5.8, 71% of glutathione trisulfide degraded after 10 days. At pH values of 7.4 and 9.0, glutathione trisulfide degraded 79 and 81%, respectively, at day 9. […] The degradation of glutathione trisulfide reached an equilibrium of approximately 20% with the disulfide due to the reaction catalyzed by amine with elemental sulfur. Rate constants and half-lives were obtained for the degradation of glutathione trisulfide at each pH value using early data points unaffected by the equilibrium. At pH values of 5.8, 7.4, and 9.0, the estimated half-lives were 6.3 days (151 h), 0.90 days (21.6 h), and 0.79 days (19.0 h), respectively (Figure S14b).
The stability of NAC tetrasulfide was investigated in D2O buffered at pH values of 5.8, 7.4, and 9.0 (Figure S16a). At a pH of 5.8, NAC tetrasulfide degraded by 13% after 9 days. At pH values of 7.4 and 9.0, the tetrasulfide degraded by 55 and 52%, respectively, after 9 days. At each pH, the degradation product was NAC trisulfide, elemental sulfur, and a small amount of NAC disulfide (<3%). […] Estimated rate constants and half-lives for the degradation of NAC tetrasulfide at each pH were obtained. At pH values of 5.8, 7.4, and 9.0, the estimated half-lives were 53.3, 7.5, and 8.2 days, respectively (Figure S16b).

[7] = Stability in the presence of acetonitrile, benzamide, zinc sulfate or iron sulfate, or in methanol-d4 (1H NMR); assay type: physicochemical; conditions: 3:1 mole ratio acetonitrile or benzamide, D2O, after 12 days
Method: N-Acetylcysteine trisulfide (26.5 mg, 66 μmol) was dissolved in 600 μL of D2O. Acetonitrile (3.0 mg, 73 μmol) was added, and the ^1H NMR spectra were taken periodically to track degradation.
N-Acetylcysteine trisulfide (31.4 mg, 78 μmol) was dissolved in 600 μL of D2O. Benzamide (9.4 mg, 78 μmol) was added, and the ^1H NMR spectra were taken periodically to track degradation.
N-Acetylcysteine trisulfide (15.0 mg, 38 μmol) was dissolved in 600 μL of D2O. ZnSO4 (11.8 mg, 73 μmol) was added, and the ^1H NMR spectra were taken periodically to track degradation.
N-Acetylcysteine trisulfide (15.0 mg, 38 μmol) was dissolved in 600 μL of D2O. FeSO4·7H2O (11.6 mg, 41 μmol) was added, and the ^1H NMR spectra were taken periodically to track degradation.
N-Acetylcysteine trisulfide (32.1 mg, 80 μmol) was dissolved in 600 μL of CD3OD. The ^1H NMR spectra were taken periodically to track degradation.
Cysteine trisulfide (5.1 mg, 19 μmol) was added to 600 μL of D2O. Solution was filtered to remove undissolved particles. […] The ^1H NMR spectra were taken periodically to track degradation.
Cysteine trisulfide (6.8 mg, 25 μmol) was added to 600 μL of D2O. Solution was filtered to remove undissolved particles. […] The ^1H NMR spectra were taken periodically to track degradation.

Solubility observations = assay type: physicochemical

## C=CCSSSCC=C [DATS, diallyl trisulfide]
[1]; in the presence of glutathione (GSH)
  degradation: degraded rapidly
[1]; micellar solution (propylene glycol, ethanol, Tween 80, water), pH 2.6 to 7.0, 15 min, HPLC
  stability: stable
[1]; neat, 4 °C, after 3 months, HPLC
  stability: stable
[1]; neat, 35 °C, after 3 months, HPLC
  degraded: 30%
[1]; neat, room temperature, after 3 months, HPLC
  degraded: 11%
[1]; same micellar solution, in the presence of antioxidants
  stability: not stable

## CSSSC [DMTS, dimethyl trisulfide]
[1]; neat, 4 and 22 °C, over 1 year
  degradation: no degradation
[1]; neat, 34 °C, over 1 year
  degraded: 70%

## S [H2S, hydrogen sulfide]
[2]
  pKa: 7.0

## CC(=O)N[C@@H](CSSC[C@H](NC(C)=O)C(=O)O)C(=O)O [NAC disulfide, N-Acetylcysteine disulfide, reference compound]
[3]
  converted to trisulfide: 15%

## CC(=O)NC(CSSSSCC(NC(C)=O)C(=O)O)C(=O)O (centres unmarked) [NAC tetrasulfide, N-Acetylcysteine Tetrasulfide]
[4]; D2O with butylamine or triethylamine, in the presence of butylamine and triethylamine (both amines), read-out: upper limit of the half-life
  half-life at 73 mM: ≤ 1.6 min
[4]; D2O with butylamine, in the presence of butylamine (abstract), read-out: half-life
  half-life: ≤ 0.025 h
[4]; after 5 min
  tetrasulfide present: less than 10%
[4]; after a day
  tetrasulfide present: 4%
[1]; in the presence of thiols, released H2S
  stability: unstable
[5]; 40 °C
  estimated rate constant: 8.7 × 10^–2 days^–1
[5]; 40 °C, after 20 days
  degraded: 83%
[5]; 40 °C, after 63 days
  degradation: 83%
[5]; 40 °C, read-out: estimated half-life (converted)
  half-life at 43 mM: 192 h
[5]; room temperature
  estimated rate constant: 3.9 × 10^–2 days^–1
[5]; room temperature, after 35 days
  degraded: 69%
[5]; room temperature, read-out: estimated half-life (converted)
  half-life at 35 mM: 427 h
[6]; pH 5.8, pH 5.8
  half-life: 1280 h
[6]; pH 7.4, pH 7.4
  half-life: 180 h
[6]; pH 9, pH 9.0
  half-life: 197 h
[6]
  degradation: 13%
[6]; pH 7.4, day 9
  degraded: 55%
[6]; pH 9.0, day 9
  degraded: 52%

## N[C@@H](CSSSC[C@H](N)C(=O)O)C(=O)O [cysteine trisulfide, Cysteine Trisulfide]
[4]; D2O with butylamine, in the presence of butylamine, D2O, early data points, read-out: estimated half-life of degradation (converted)
  half-life: 2.3 h
[4]; D2O with triethylamine, in the presence of triethylamine, D2O, early data points, read-out: estimated half-life of degradation (converted)
  half-life: 2.9 h
[4]; after 10 days in the presence of butylamine and triethylamine, D2O
  trisulfide remaining (degradation leveled off): approximately 20%
[4]; in the presence of butylamine, D2O
  degraded: 63%
[4]; in the presence of triethylamine, D2O
  degraded: 78%
[7]
  degradation: no observable degradation
[6]; basic conditions (abstract)
  stability: unstable
[6]; pH 7, pH 7.0
  half-life: 406 h
[6]; pH 9, pH 9.0
  half-life: 274 h
[6]
  degradation: < 3%
[6]; pH 7.0, after 13 days
  degraded: 40%
[6]; pH 9.0, after 13 days
  degraded: 56%
Solubility observations; buffered water pH 5.8, 7.0 and 9.0
  solubility: soluble
Solubility observations; buffered water pH 7.4
  solubility: poorly soluble

## N[C@@H](CS)C(=O)O [cysteine]
[2]; ammonium group
  pKa: 10.8

## N[C@@H](CCC(=O)N[C@@H](CS)C(=O)NCC(=O)O)C(=O)O [glutathione]
[2]; ammonium group
  pKa: 9.6

Reference: article PMC8992272, “Stabilities of Three Key Biological Trisulfides with Implications for Their Roles in the Release of Hydrogen Sulfide and Bioaccumulation of Sulfane Sulfur” (ACS Omega, 2022)
